{"source": "patent US20030158093A1", "about": "“Bifunctional glycopeptide antibiotics and combinatorial libararies thereof” (priority 2001, published 2003)", "type_in_all_cases": "cell-based", "key": {"[1]": {"tested_on": "E. faecium resistant (VanA) (CL4931)", "assay": "MIC, standard microdilution assay, E. faecium resistant (VanA)", "conditions": "strain CL4931; for MIC: Enterococcus faecium, 22 h", "method": "(§1) Briefly, compound 7 and compound 10 were synthesized by utilizing procedures described, for example, in Thompson, C. et al., J. Am. Chem. Soc., 1999, 121, 1237. Compound 8 was prepared from tri-O-acetyl-D-glucal by a one-step procedure described by Chen, Z. Ph.D. Dissertation, Princeton University, Princeton, N.J. 2001."}, "[2]": {"tested_on": "E. faecalis resistant (VanB) (CL4877)", "assay": "MIC, standard microdilution assay, E. faecalis resistant (VanB)", "conditions": "strain CL4877; for MIC: Enterococcus faecalis, 22 h", "method": "as §1"}, "[3]": {"tested_on": "E. faecalis sensitive (29212)", "assay": "MIC, standard microdilution assay, E. faecalis sensitive", "conditions": "strain 29212; for MIC: Enterococcus faecalis, 22 h", "method": "as §1"}, "[4]": {"tested_on": "E. faecium sensitive (49624)", "assay": "MIC, standard microdilution assay, E. faecium sensitive", "conditions": "strain 49624; for MIC: Enterococcus faecium, 22 h", "method": "as §1"}, "[5]": {"tested_on": "S. aureus (29213)", "assay": "MIC, standard microdilution assay, S. aureus", "conditions": "strain 29213; for MIC: Staphylococcus aureus, 22 h", "method": "as §1"}, "[6]": {"tested_on": "transglycosylation", "assay": "Inhibition of transglycosylation in a permeabilized E. coli model"}}}
{"compound": "CCCCCCCCCCCCOP(=O)(O)OC1OC(C(N)=O)C(OC)C(NC(=O)Nc2ccc(Cl)c(C(F)(F)F)c2)C1OC1OC(CO)C(O)C(O)C1NC(=O)c1cccc(C(F)(F)F)c1", "note": "(stereo not drawn) [Compound 4]", "values": [{"measurement": "MIC", "setting": "[1]; Table 2", "result": 6.2, "unit": "µg/mL"}, {"measurement": "MIC", "setting": "[2]; Table 2", "result": 3.1, "unit": "µg/mL"}, {"measurement": "MIC", "setting": "[3]; Table 2", "result": 6.2, "unit": "µg/mL"}, {"measurement": "MIC", "setting": "[4]; Table 2", "result": 6.2, "unit": "µg/mL"}, {"measurement": "MIC", "setting": "[5]; Table 2", "result": 6.2, "unit": "µg/mL"}, {"measurement": "inhibition of transglycosylation", "setting": "[6]", "result": "inhibits transglycosylation"}]}
{"compound": "vancomycin [Compound 1a]", "values": [{"measurement": "MIC E. faecium resistant (VanA)", "setting": "[1]; Table 1, 35° C., 22h", "result": ">500", "unit": "µg/mL"}, {"measurement": "MIC E. faecalis resistant (VanB)", "setting": "[2]; Table 1, 35° C., 22h", "result": ">500", "unit": "µg/mL"}, {"measurement": "MIC E. faecalis sensitive", "setting": "[3]; Table 1, 35° C., 22h", "result": 16, "unit": "µg/mL"}, {"measurement": "MIC E. faecium sensitive", "setting": "[4]; Table 1, 35° C., 22h", "result": 2, "unit": "µg/mL"}, {"measurement": "MIC S. aureus", "setting": "[5]; Table 1, 35° C., 22h", "result": 4, "unit": "µg/mL"}]}
{"compound": "CN[C@H](CC(C)C)C(=O)N[C@H]1C(=O)N[C@@H](CC(N)=O)C(=O)N[C@H]2C(=O)N[C@H]3C(=O)N[C@H](C(=O)N[C@H](C(=O)O)c4cc(O)cc(O)c4-c4cc3ccc4O)[C@H](O)c3ccc(c(Cl)c3)Oc3cc2cc(c3O)Oc2ccc(cc2Cl)[C@H]1O", "note": "[Vancomycin Aglycon, Vancomycin aglycone]", "values": [{"measurement": "22-hr MIC E. faecium resistant (VanA)", "setting": "[1]; Table 2", "result": ">500", "unit": "µg/mL"}, {"measurement": "22-hr MIC E. faecalis resistant (VanB)", "setting": "[2]; Table 2", "result": ">500", "unit": "µg/mL"}, {"measurement": "22-hr MIC E. faecalis sensitive", "setting": "[3]; Table 2", "result": 8, "unit": "µg/mL"}, {"measurement": "22-hr MIC E. faecium sensitive", "setting": "[4]; Table 2", "result": 2, "unit": "µg/mL"}, {"measurement": "22-hr MIC S. aureus", "setting": "[5]; Table 2", "result": 2, "unit": "µg/mL"}]}
{"compound": "COc1cccc(OC)c1OCCOC1OC(C(N)=O)C(OC)C(NC(=O)Nc2ccc(Cl)c(C(F)(F)F)c2)C1OC1OC(CO)C(O)C(O)C1NC(=O)c1cccc(C(F)(F)F)c1", "note": "(stereo not drawn) [Compound 6]", "values": [{"measurement": "MIC", "setting": "[1]; Table 2", "result": 250, "unit": "µg/mL"}, {"measurement": "MIC", "setting": "[2]; Table 2", "result": 250, "unit": "µg/mL"}, {"measurement": "MIC", "setting": "[3]; Table 2", "result": 125, "unit": "µg/mL"}, {"measurement": "MIC", "setting": "[4]; Table 2", "result": 250, "unit": "µg/mL"}, {"measurement": "MIC", "setting": "[5]; Table 2", "result": 125, "unit": "µg/mL"}]}
